This note sets out measurements from ChEMBL document CHEMBL1132595, “Acquisition of high-affinity, SH2-targeted ligands via a spatially focused library” (J Med Chem, 1999).

One may read the Kd as a measure of binding affinity in units of concentration.

Experiment [1] concerns the target Growth factor receptor-bound protein 2 (Homo sapiens, UniProt P62993). Put plainly: Dissociation constant for binding to SH2 domain of Growth factor receptor bound protein 2, Grb2.
The target of experiment [2] is Tyrosine-protein kinase Lck (Homo sapiens, UniProt P06239). The experiment can be described thus: Dissociation constant for binding to SH2 domain of p56 lck tyrosine kinase.
Experiment [3] is described as follows: Dissociation constant for binding to SH2 domain of Phospholipase C gamma.
The target in experiment [4] is Tyrosine-protein kinase Fyn (Homo sapiens, UniProt P06241). Put plainly: Dissociation constant for binding to SH2 domain of Fyn protein kinase.
Experiment [5] in a line: Dissociation constant for binding to SH2 domain of Phosphatidylinositol 3-kinase p85 subunit.

SMILES strings stand for the structures.

Tyrosine-protein kinase Fyn, sequence (P06241 whole entry, the tested form may be a part): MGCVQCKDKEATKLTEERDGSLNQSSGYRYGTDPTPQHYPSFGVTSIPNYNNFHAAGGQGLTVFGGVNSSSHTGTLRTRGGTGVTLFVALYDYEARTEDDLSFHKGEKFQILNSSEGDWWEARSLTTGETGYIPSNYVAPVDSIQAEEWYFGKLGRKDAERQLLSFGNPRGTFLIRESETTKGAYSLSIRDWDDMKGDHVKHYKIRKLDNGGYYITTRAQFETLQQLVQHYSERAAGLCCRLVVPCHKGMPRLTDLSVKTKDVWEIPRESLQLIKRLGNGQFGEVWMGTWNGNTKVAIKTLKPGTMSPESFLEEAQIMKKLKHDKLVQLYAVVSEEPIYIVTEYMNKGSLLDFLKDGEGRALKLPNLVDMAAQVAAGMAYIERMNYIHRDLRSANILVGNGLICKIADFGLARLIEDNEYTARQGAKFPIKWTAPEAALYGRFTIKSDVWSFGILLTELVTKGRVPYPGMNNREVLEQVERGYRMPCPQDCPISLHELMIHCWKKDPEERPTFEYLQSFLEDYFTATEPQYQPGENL
Tyrosine-protein kinase Lck, sequence (P06239 whole entry, the tested form may be a part): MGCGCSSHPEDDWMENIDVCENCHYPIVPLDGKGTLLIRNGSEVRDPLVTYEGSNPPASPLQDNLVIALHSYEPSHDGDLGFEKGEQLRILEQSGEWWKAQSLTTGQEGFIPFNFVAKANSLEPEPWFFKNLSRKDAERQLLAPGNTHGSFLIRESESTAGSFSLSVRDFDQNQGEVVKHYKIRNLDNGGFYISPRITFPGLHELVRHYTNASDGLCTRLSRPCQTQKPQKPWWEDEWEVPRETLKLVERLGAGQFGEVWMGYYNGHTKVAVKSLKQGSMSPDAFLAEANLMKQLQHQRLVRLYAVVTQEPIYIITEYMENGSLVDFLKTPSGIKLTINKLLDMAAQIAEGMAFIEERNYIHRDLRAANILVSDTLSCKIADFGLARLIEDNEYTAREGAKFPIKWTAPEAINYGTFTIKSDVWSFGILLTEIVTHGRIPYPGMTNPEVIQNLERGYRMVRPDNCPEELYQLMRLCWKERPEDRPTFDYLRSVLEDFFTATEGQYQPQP
Growth factor receptor-bound protein 2, sequence (P62993 whole entry, the tested form may be a part): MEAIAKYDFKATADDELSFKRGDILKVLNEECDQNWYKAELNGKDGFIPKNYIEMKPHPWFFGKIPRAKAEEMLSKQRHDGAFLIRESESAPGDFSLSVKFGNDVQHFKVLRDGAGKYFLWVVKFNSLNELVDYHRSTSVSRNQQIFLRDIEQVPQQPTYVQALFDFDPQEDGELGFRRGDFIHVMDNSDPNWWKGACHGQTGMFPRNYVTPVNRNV

In the case of `O=C(O)Cc1cc(=O)oc2cc(O)ccc12`, the Kd in experiment [1] came to 11300 nM; in experiment [2], 35 nM; in experiment [3], 4900 nM; in experiment [4], 150 nM; in experiment [5], 9300 nM.
For the compound `O=C(O)c1ccsc1`, the Kd in experiment [2] came out at 260 nM; in experiment [4], 700 nM.
For `O=C(O)c1cc(C(=O)O)cc(S(=O)(=O)O)c1`, in that order: 220 nM and 60 nM.
In the case of `COc1ccc2c(CC(=O)O)cc(=O)oc2c1`, in experiment [2], binding was put at a Kd of 2500 nM.
Turning to `COc1cc(Br)c(C(=O)O)cc1OC`, the values for the Kd in experiment [2] and in experiment [4] were 240 nM and 500 nM, respectively.
For `O=C(O)CNC(=O)c1ccc([N+](=O)[O-])cc1`, in that order: 290 nM and 240 nM.
